According to US5593970A, “Heterocyclic anthracycline analogs” (priority 1994, dated 1997):

Tests used:
HT29 = test: Soft agar colony formation disk diffusion assay; assay type: cell-based, human
Text: A more elaborate version of this fundamental assay, the soft agar colony formation disk diffusion assay was used. […] The effect of the test drug against tumoral cells could be measured by its inhibitory capacity against colony formation after the delivery of the compound, in different concentrations on an filter disk(4). A modified technique of this assay was used in order to investigate the antiproliferative activity of candidate compounds. Tumoral cells from solid tumors and ascitic lines were plated separately in a two layer agar matrix. Cell lines to be tested were suspended in an upper layer of 0.4% Noble agar (Difco#00142-01) in RPMI-1066 (Gibco#3201875) at a yield varying between 10^4 to 2×10^5 cells per 60 mm Petri dish. Plating efficiency was determined for each line in order to achieve an optimal number of colonies per dish. […] The bottom layer consisted of 0.8% Noble agar, 0.8% Tryptic Soy Broth (difco#0037001)in CMRL-1066/Fischer's. The bottom layers were used within 2 and 9 days of preparation. Plated dishes (bottom layer of agar, upper layer of cells and administered drug were incubated in humidified atmosphere at 37° C., 5% CO2 for 10-20 days depending upon the time necessary to observe adequate colonies (defined as a cell aggregate of more than 50 cells) both control and drug inhibited. Drugs were administered on a paper filter disk (Whatman No. 1) of 6.5 mm diameter placed on the upper layer at 1/3 distance from the edge of the dish. The anti-clonogenic activity of the compounds was measured as the zone of inhibition from the disk edge to the most proximal colonies. This zone of inhibition was checked on an inverted microscope (40×) and was measured with a micrometer mounted in the eyepiece. The ocular micrometer was calibrated with a stage micrometer set for a particular combination of ocular and objective lenses. […] We made a modification of the initial technique by not plating a solid tumor and a leukemia simultaneously in the same Petri dish. […] HUMAN TUMORS. […] LS180 (13) and BE1(14) were obtained from the Oncology Dept. of the Montreal General Hospital. […] Cell lines were routinely passaged twice a week by trypsinization and maintained in 25, or 75-sq. cm Falcon Plastic flasks at 37° C., 5% CO2 in humidified atmosphere. Both compounds were dissolved in DMSO (1 mg/100 ul) and brought to final volume (250 ul) with Millipore deionized sterile water. Further dilutions were made with […] volume of 25 ul of freshly prepared solution was placed on the filter disk and allowed to dry.

MATB.WT = test: Soft agar colony formation disk diffusion assay; assay type: cell-based, rat
Text: (§1) A more elaborate version of this fundamental assay, the soft agar colony formation disk diffusion assay was used. This assay defines the relative activity of one particular drug versus a tumoral cell line type. The effect of the test drug against tumoral cells could be measured by its inhibitory capacity against colony formation after the delivery of the compound, in different concentrations on an filter disk(4). A modified technique of this assay was used in order to investigate the antiproliferative activity of candidate compounds. Tumoral cells from solid tumors and ascitic lines were plated separately in a two layer agar matrix. Cell lines to be tested were suspended in an upper layer of 0.4% Noble agar (Difco#00142-01) in RPMI-1066 (Gibco#3201875) at a yield varying between 10^4 to 2×10^5 cells per 60 mm Petri dish. Plating efficiency was determined for each line in order to achieve an optimal number of colonies per dish. Plates were examined before drug administration to confirm a uniform dispersion of single cells. The bottom layer consisted of 0.8% Noble agar, 0.8% Tryptic Soy Broth (difco#0037001)in CMRL-1066/Fischer's. The bottom layers were used within 2 and 9 days of preparation. Plated dishes (bottom layer of agar, upper layer of cells and administered drug were incubated in humidified atmosphere at 37° C., 5% CO2 for 10-20 days depending upon the time necessary to observe adequate colonies (defined as a cell aggregate of more than 50 cells) both control and drug inhibited. Drugs were administered on a paper filter disk (Whatman No. 1) of 6.5 mm diameter placed on the upper layer at 1/3 distance from the edge of the dish. The anti-clonogenic activity of the compounds was measured as the zone of inhibition from the disk edge to the most proximal colonies. This zone of inhibition was checked on an inverted microscope (40×) and was measured with a micrometer mounted in the eyepiece. The ocular micrometer was calibrated with a stage micrometer set for a particular combination of ocular and objective lenses. […] We made a modification of the initial technique by not plating a solid tumor and a leukemia simultaneously in the same Petri dish. Anti-clonogenic tests performed on leukemia cell line have helped in the discovery of the majority of current clinically used cytostatic drugs. Our tests on solid tumor lines (animal or human) may help define active compounds with solid tumor specificity. […] Murine tumors were maintained IN VIVO in order to diminish the selection of subpopulations of cells normally present in the heterogenous IN VIVO tumor. The actual drug sensitivity assay was done IN VITRO. For these experiments cells from freshly excised tumors or from ascitic fluids were maintained in RPMI-1066. Both compounds were dissolved in DMSO (1 mg/100 ul) and brought to final volume (250 ul) with Millipore deionized sterile water. Further dilutions were made with […] volume of 25 ul of freshly prepared solution was placed on the filter disk and allowed to dry.

MATB/ADR = test: Soft agar colony formation disk diffusion assay; assay type: cell-based, rat
Text: as §1

SKVLB = test: Microculture tetrazolium assay; assay type: cell-based; conditions: for VLB/OV3: IC50 ratio SKVLB/SKOV3; for IC50: SKVLB, read-out: IC50
T47D = test: Microculture tetrazolium assay; assay type: cell-based; conditions: read-out: IC50

Molecule | IC50 (SKVLB) [µM] | zone of inhibition (HT29; 10 μg/DISK) [Zone Units] | zone of inhibition (HT29; 100 μg/DISK) [Zone Units] | zone of inhibition (MATB.WT; 10 μg/DISK) [Zone Units] | zone of inhibition (MATB.WT; 100 μg/DISK) [Zone Units] | cross resistance with adriamycin, MATB/ADR vs MATB.WT (MATB/ADR) | zone of inhibition (MATB/ADR; 10 μg/DISK) [Zone Units] | zone of inhibition (MATB/ADR; 100 μg/DISK) [Zone Units] | VLB/OV3 (SKVLB) | IC50 (T47D) [µM]
3-(2-acetoxy-1-propeneketal)aceto-6-acetoxy-1-hydroxy-1,2,3,4-tetrahydro-(2-oxygen)naphtacene-5,12-dione and 3-(2-acetoxy-1-propeneketal)-aceto-11-acetoxy-1-hydroxy-1,2,3,4-tetrahydro-(2-oxygen)naphtacene-5,12-dione [BCH-710] | 5.19 | 30.0 ± 8.4 | 69.0 ± 30.0 | 44.0 | 366.0 ± 0.0 | greater cytotoxicity in the resistant breast tumor cell line | 288.0 ± 21.9 | 350.0 ± 64.3 | 1.30 | 3.57
3-Carbomethoxy-1,11-dihydroxy-1,2,3,4-tetrahydro-(2-oxygen)naphthacene-5,12-dione 3-Carbomethoxy-1,6-dihydroxy-1,2,3,4-tetrahydro-(2-oxygen)naphthacene-5,12-dione [BCH-711] | 13.5 | 27.0 ± 4.2 | 91.5 ± 43.1 | 27.0 ± 4.2 | 137.0 ± 21.2 | greater cytotoxicity in the resistant breast tumor cell line | 45.5 ± 21.9 | 107.0 ± 21.9 | 1.22 | 12.4
C=CC1CC2=C(C(=O)c3cc4ccccc4c(O)c3C2=O)C(OC)O1 (stereo not drawn) [BCH-712, 6-hydroxy-1-methoxy-1,2,3,4-tetrahydro-3-vinyl-(2-oxygen) naphthacene-5,12-dione] |  | 0 | 55.0 ± 8.4 | 21.0 ± 4.3 | 76.0 ± 21.2 | no cross resistance with adriamycin | 0 | 64.0 ± 4.2 |  | 

Second part, led by results:

IC50 (SKVLB) [µM] | Molecule | zone of inhibition (HT29; 10 μg/DISK) [Zone Units] | zone of inhibition (HT29; 100 μg/DISK) [Zone Units] | zone of inhibition (MATB.WT; 10 μg/DISK) [Zone Units] | zone of inhibition (MATB.WT; 100 μg/DISK) [Zone Units] | cross resistance with adriamycin, MATB/ADR vs MATB.WT (MATB/ADR) | zone of inhibition (MATB/ADR; 10 μg/DISK) [Zone Units] | zone of inhibition (MATB/ADR; 100 μg/DISK) [Zone Units] | VLB/OV3 (SKVLB) | IC50 (T47D) [µM]
17.9 | 3-(2-hydroxy)aceto-6-hydroxy-1,2,3,4-tetrahydro-(2-oxygen)naphthacene-5,12-dione and 3-(2-hydroxy)aceto-11-hydroxy-1,2,3,4-tetrahydro-(2-oxygen)naphthacene-5,12-dione [BCH-694] | 30.5 ± 8.6 | 143.3 ± 30.1 | 76.2 ± 2.5 | 207.0 ± 33.9 |  | 27.4 ± 4.3 | 213.5 ± 43.1 | 2.18 | 11.3
44.2 | 3-carbomethoxy-6-hydroxy-1,2,3,4-tetrahydro-(2-sulfur)naphthacene-5,12-dione and 3-carbomethoxy-11-hydroxy-1,2,3,4-tetrahydro(2-sulfur)naphthacene-5,12-dione [BCH-693] | 0 | 39.6 ± 4.3 | 0 | 42.7 ± 8.8 |  | 0 | 67.1 ± 8.6 | 1.06 | 16.3
6.38 | CCOC(=O)[C@H]1CC2=C(C(=O)c3cc4ccccc4c(O)c3C2=O)[C@H](O[C@H]2C[C@H](NC(=O)C(F)(F)F)[C@H](O)[C@H](C)O2)O1 [BCH-684, (1'S,1S,3R)Ethyl[6-hydroxy-5,12-dioxo-1-(3'-trifluoroacetamido-1-daunosaminyl)-3,4,5,12-tetrahydroanthraceno(2,3-C)pyran-3-yl]formate] | 137.2 ± 21.5 | 170.8 ± 86.2 | 131.3 ± 12.9 | 366.0 ± 172.5 | no cross resistance with adriamycin | 122.0 ± 17.0 | 320.2 ± 107.8 | 1.52 | 
